# Measured values from patent publication US20060147549A1, “Methods and compositions for reducing population of plant pathogen” (priority 2004, published 2006).
# Test system: citrus canker microbe (Xanthomonas axonopodis pv citri)
# Assay: Nursery experiment: compositions sprayed on fruit bearing citrus trees inoculated with citrus canker microbe
# Format: in vivo
# Method: In a nursery experiment, three antimicrobial compositions and a control composition were tested for activity against citrus canker microbe. The compositions were sprayed on fruit bearing citrus trees that had been inoculated with citrus canker microbe (Xanthomonas axonopodis pv citri). In these experiments composition A was the metal antimicrobial agent and poly(hexamethyl biguanide) composition and composition B was this composition plus copper ion.
# The composition of metal antimicrobial agent and poly(hexamethyl biguanide) as used in compositions A and B included: water ([…]), poly(hexamethyl biguanide) (0.6 wt-%), and silver iodide (0.02 wt-%) Triton X-100 (2 wt-%), Tectronic 1107 (1.2 wt-%), 1-methyl-2-pyrrolidinone (0.3 wt-%), and ethanol (2.8 wt-%).
# The antimicrobial composition was applied periodically and the plants were challenged with citrus canker microbe.
substance,measurement,setting,value
Copper,% OF HEALTHY LEAVES,Date 1,82%
same,% OF LEAVES WITH CANKER,Date 1,22.2%
same,% OF HEALTHY LEAVES,Date 2,80.7%
same,% OF LEAVES WITH CANKER,Date 2,18%
same,% OF HEALTHY LEAVES,Date 4,84.7%
same,% OF LEAVES WITH CANKER,Date 4,17.59%
